We go through 4 compounds from patent US7208597B2, “Pyridyl-triazine derivatives as microbiocidal active substances” (Ciba Specialty Chemicals Corporation, priority 2002, dated 2007).

Molecules are shown by their SMILES.

What is called MIC is the smallest concentration in the dilution series that meets the test's criterion for growth inhibition.

Assay type in all cases: cell-based
The test system of experiment [1] is Staphylococcus aureus ATCC 6538. Put plainly: MIC, agar incorporation test. The settings on record: ATCC6538, 24 hours at 37° C. The protocol:
(§1) Determination of the Minimum Inhibitory Concentration (MIC) in the Agar Incorporation Test (MIC Test) [table] The plates are incubated at 37° C. for 24 hours (A. niger at 28° C. for 3 days) and then the highest dilution (lowest concentration) of the test substance at which growth is just no longer discernible (corresponds to the MIC) is determined.

In experiment [2] the test system is Escherichia coli ATCC 10536. Put plainly: MIC, agar incorporation test. The settings on record: ATCC10536, 24 hours at 37° C. On the procedure:
as §1

The test system of experiment [3] is Salmonella choleraesuis ATCC 9184. Nature of the experiment: MIC, agar incorporation test. Particulars: Salmonella enterica, 24 hours at 37° C. On the procedure:
as §1

The subject of experiment [4] is Escherichia coli NCTC 8196. Put plainly: MIC, agar incorporation test. The settings on record: NCTC8196, 24 hours at 37° C. The protocol: as §1
For experiment [5], the system named is Klebsiella pneumoniae ATCC 4352. Put plainly: MIC, agar incorporation test. Particulars: ATCC4352, 24 hours at 37° C. On the procedure:
as §1

In experiment [6] the test system is C. minutissimum ATCC 23348. Nature of the experiment: MIC, agar incorporation test. Particulars: Corynebacterium minutissimum, ATCC23348, 24 hours at 37° C. On the procedure: as §1
For experiment [7], the system named is Aspergillus niger ATCC 6275. Nature of the experiment: MIC, agar incorporation test. The settings on record: ATCC6275, 72 h, 28° C. for 3 days. On the procedure: as §1
The subject of experiment [8] is Candida albicans ATCC 10231. Put plainly: MIC, agar incorporation test. The settings on record: ATCC10231, 24 hours at 37° C. On the procedure: as §1
The test system of experiment [9] is Proteus vulgaris ATCC 6896. Put plainly: MIC, agar incorporation test. Particulars: ATCC6896, 24 hours at 37° C. On the procedure: as §1
The test system of experiment [10] is Corynebacterium xerosis ATCC 373. Nature of the experiment: MIC, agar incorporation test. Particulars: ATCC373, 24 hours at 37° C. The protocol:
as §1

For experiment [11], the system named is Staphylococcus epidermidis ATCC 12228. Put plainly: MIC, agar incorporation test. Particulars: ATCC12228, 24 hours at 37° C. The protocol:
as §1

Experiment [12] relates to Pseudomonas aeruginosa ATCC 15442. Nature of the experiment: MIC, agar incorporation test. Particulars: ATCC15442, 24 hours at 37° C. On the procedure: as §1
For experiment [13], the system named is Propionibacterium acnes ATCC 6919. Nature of the experiment: MIC, agar incorporation test. The settings on record: Cutibacterium acnes, ATCC6919, 24 hours at 37° C. On the procedure:
as §1

In experiment [14] the test system is biofilm of a defined mixed culture of various gram+ and gram− oral micro-organisms and a yeast (Candida albicans). Put plainly: Activity in the biofilm model (supragingival plaque on hydroxyapatite discs). An excerpt: Testing the Activity of 2-tert-butyl-4-n-octylamino-6-pyrid-2-yl-1,3,5-triazine (140) in the Biofilm Model Principle: See Guggenheim et al. (2001), “Validation of an in vitro biofilm model of supragingival plaque”, J. Dent Res. 80 (1). Hydroxyapatite discs are pre-treated with human saliva and a biofilm of a defined mixed culture of various gram+ and gram− oral micro-organisms (Streptococci, Actinomyces sp., Veillonella & Fusobacterium sp. and others) and a yeast (Candida albicans) is allowed to grow on the hydroxyapatite. Over the course of the test, which lasts a total of 4 days, the discs are immersed several times in an application formulation of the substance (0.5% (140)). Finally, the biofilm is harvested and the living cell count is determined.

For experiment [15], the system named is Actinomyces viscosus ATCC 43146. Put plainly: Substantivity on hydroxyapatite and growth-inhibiting action. Particulars: discs pre-treated with artificial saliva, 30 minutes in ethanolic solution at 5 ppm; 24 hours at 37° C.; compared to untreated control. On the procedure:
Testing the Substantivity of 2-tert-butyl-4-n-octylamino-6-pyrid-2-yl-1,3,5-triazine (140) on Hydroxyapatite and Determination of the Growth-Inhibiting Action Hydroxyapatite discs (diameter 10 mm) are placed in artificial saliva (Deutsche Zahnärztliche Zeitschrift DZZ 5/2002) for 4 hours, rinsed 4 times in NaCl solution and then incubated for 30 minutes in an ethanolic solution of the test substance (140) at 5 ppm. The discs are then transferred to a Nunclon-surface titre plate (12 wells) and incubated at 37° C. for 24 hours in CASO nutrient medium inoculated with Actinomyces viscosus ATCC 43146 (about 10^5/ml).

In [1], `CCCCCCNc1nc(C)nc(-c2ccccn2)n1` [Compound of formula (131)] came in with an MIC of 30 µg/mL.
For the compound `CCCCCCCCNc1nc(-c2ccccn2)nc(C(C)(C)C)n1` [Compound of formula (140), 2-tert-butyl-4-n-octylamino-6-pyrid-2-yl-1,3,5-triazine], the MIC was determined as 60 µg/mL in experiment [2]; 120 µg/mL in experiment [3]; 60 µg/mL in [4]; 0.94 µg/mL in experiment [1]; 120 µg/mL in experiment [5]; 0.94 µg/mL in experiment [6]. Moreover, the MIC was greater than 120 µg/mL in experiment [7]; greater than 120 µg/mL in experiment [8]; greater than 120 µg/mL in [9]; 0.94 µg/mL in experiment [10]; 120 µg/mL in [11]; greater than 120 µg/mL in experiment [12]. The minimum inhibitory concentration (MIC) in experiment [13] stood at 0.94 µg/mL. The “action on microbial count of the biofilm (in words)” value in experiment [14] (compared to placebo formulation and control containing 10% ethanol) was “clear reduction in the microbial count”. The “living cell count of biofilm (Mean)” value in [14] (hydroxyapatite discs pre-treated with human saliva, 4 days, discs immersed several times in application formulation (0.5% (140))) is given as 1.1 × 10^5 CPU/disc. In addition, in experiment [15], the “inhibition of the growth of Actinomyces viscosus following adsorption onto hydroxyapatite discs” value is reported as “inhibition of the growth”.
In turn, `CCCCCCNc1nc(C)nc(-c2cccnc2)n1` [Compound of formula (135)] yielded a minimal inhibitory concentration (MIC) in [1] of 60 µg/mL.
`CCCCCCCCCCCC(=O)Nc1nc(C)nc(-c2ccncc2)n1` [Compound of formula (123)]: in experiment [1], the MIC came to 8 µg/mL.
